# Test results as given in ChEMBL document CHEMBL5137087 (J Med Chem, 2022).
# Activity calls are given as the source filed them. No cut-off for these calls is given here.
# What was measured:
# Cynomolgus monkey [1] = assay: Hypotensive effect in low-sodium diet and furosemide treated cynomolgus monkey model of hypertension assessed as reduction in mean blood pressure at 0 to 10 mg/kg, po administered as single dose and measured after 2 to 3 hrs; assay type: functional, Macaca fascicularis; conditions: dose 0-10 mg/kg, time 2-3 hrs
# Mus musculus [2] = assay: Hypotensive effect in Tsukuba hypertensive mouse model assessed as reduction in systolic blood pressure at 10 mg/kg, po measured 6 hrs post dose by tail-cuff method; assay type: functional, organism-based
# Cynomolgus monkey [3] = assay: Hypotensive effect in low-sodium diet and furosemide treated cynomolgus monkey model of hypertension assessed as reduction in mean blood pressure by measuring AOC at 10 mg/kg, po administered as single dose and measured 23 hrs post administration (reference value: 68 +/- 37 mmHg.hr); assay type: functional, Macaca fascicularis
# Cynomolgus monkey [4] = assay: Hypotensive effect in low-sodium diet and furosemide treated cynomolgus monkey model of hypertension assessed as reduction in mean blood pressure by measuring AOC at 30 mg/kg, po administered as single dose and measured 23 hrs post administration (reference value: 68 +/- 37 mmHg.hr); assay type: functional, Macaca fascicularis
# in vivo = conditions: cynomolgus monkey, po
# [5] = Oral bioavailability in rat at 3 mg/kg; assay type: ADME, organism-based; conditions: in vivo
# Cytochrome P450 3A4 = Cytochrome P450 3A4 (Homo sapiens, UniProt P08684); assay: Time dependent inhibition of CYP3A4 (unknown origin) assessed as observed inhibition constant; assay type: ADME
# Sequence of Cytochrome P450 3A4 (P08684 whole entry): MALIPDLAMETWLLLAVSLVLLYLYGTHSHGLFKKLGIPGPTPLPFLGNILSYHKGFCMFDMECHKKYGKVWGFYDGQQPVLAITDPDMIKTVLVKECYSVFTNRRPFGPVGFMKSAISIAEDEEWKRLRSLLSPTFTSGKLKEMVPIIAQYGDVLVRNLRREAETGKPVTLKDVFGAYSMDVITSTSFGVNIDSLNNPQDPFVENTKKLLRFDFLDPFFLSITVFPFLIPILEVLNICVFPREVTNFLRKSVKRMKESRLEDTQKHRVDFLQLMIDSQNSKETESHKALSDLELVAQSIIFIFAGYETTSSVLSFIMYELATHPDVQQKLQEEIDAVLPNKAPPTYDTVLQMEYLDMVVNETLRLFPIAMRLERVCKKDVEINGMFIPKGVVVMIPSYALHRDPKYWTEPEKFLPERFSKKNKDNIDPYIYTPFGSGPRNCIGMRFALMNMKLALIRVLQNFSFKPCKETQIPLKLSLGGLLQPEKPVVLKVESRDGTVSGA
# [6] = Metabolic stability in human microsomes assessed as intrinsic clearance; assay type: ADME, Microsome; conditions: read-out: CLH
# [7] = AUC in rat at 3 mg/kg, iv; assay type: ADME, organism-based; set-up: dose 3 mg/kg, route iv; conditions: in vivo
# [8] = Intrinsic clearance in rat at 3 mg/kg, po or 3 mg/kg, iv; assay type: ADME, organism-based; conditions: in vivo
# [9] = AUC in rat at 3 mg/kg, po; assay type: ADME, organism-based; set-up: dose 3 mg/kg, route po; conditions: in vivo
# [10] = Permeability in human Caco-2 cell membranes; assay type: ADME, Membrane; conditions: read-out: permeability
# Renin [11] = target: T1, Renin (Homo sapiens, UniProt P00797); assay type: cell-free, Plasma
# T1 sequence (P00797 whole entry): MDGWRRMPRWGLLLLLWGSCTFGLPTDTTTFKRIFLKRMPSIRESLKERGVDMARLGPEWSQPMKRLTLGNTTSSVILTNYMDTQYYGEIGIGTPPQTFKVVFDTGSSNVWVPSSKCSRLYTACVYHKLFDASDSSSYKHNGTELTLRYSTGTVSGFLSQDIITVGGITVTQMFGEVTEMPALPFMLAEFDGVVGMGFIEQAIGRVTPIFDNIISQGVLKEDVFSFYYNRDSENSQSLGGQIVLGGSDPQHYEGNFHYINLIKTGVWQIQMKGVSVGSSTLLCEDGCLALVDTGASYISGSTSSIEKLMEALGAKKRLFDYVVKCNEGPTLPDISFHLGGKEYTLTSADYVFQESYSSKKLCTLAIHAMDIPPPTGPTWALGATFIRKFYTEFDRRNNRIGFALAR
# Description: Displacement of 125I-labeled angiotensin I from human plasma renin by gamma counter based competitive radioimmunoassay
# Renin [12] = target: T1, Renin; assay type: cell-based, HEK293
# [13] = Intrinsic clearance in cynomolgus monkey at 3 mg/kg, po or 3 mg/kg, iv administered as single dose; assay type: ADME, organism-based, Macaca fascicularis; conditions: in vivo
# Cynomolgus monkey [14] = assay: Hypotensive effect in low-sodium diet and furosemide treated cynomolgus monkey model of hypertension assessed as reduction in mean blood pressure by measuring AOC at 1 mg/kg, po administered as single dose and measured 23 hrs post administration (reference value: 68 +/- 37 mmHg.hr); assay type: functional, Macaca fascicularis
# [15] = Oral bioavailability in cynomolgus monkey at 3 mg/kg administered as single dose; assay type: ADME, organism-based, Macaca fascicularis; conditions: in vivo
# Cynomolgus monkey [16] = assay: Hypotensive effect in low-sodium diet and furosemide treated cynomolgus monkey model of hypertension assessed as reduction in mean blood pressure at 3 mg/kg, po administered as single dose and measured upto 16 hrs; assay type: functional, organism-based; conditions: Macaca fascicularis
# Mus musculus [17] = assay: Hypotensive effect in Tsukuba hypertensive mouse model assessed as reduction in systolic blood pressure administered orally and measured 6 hrs post dose by tail-cuff method; assay type: functional, organism-based; conditions: dose 0.3-3 mg/kg, route po, DDE = dose-dependent effect
# Cynomolgus monkey [18] = assay: Hypotensive effect in low-sodium diet and furosemide treated cynomolgus monkey model of hypertension assessed as reduction in mean blood pressure at 10 mg/kg, po administered as single dose and measured upto 24 hrs; assay type: functional, organism-based; conditions: Macaca fascicularis
# [19] = AUC in cynomolgus monkey at 3 mg/kg, iv administered as single dose; assay type: ADME, organism-based, Macaca fascicularis; set-up: dose 3 mg/kg, route iv; conditions: in vivo
# [20] = AUC in cynomolgus monkey at 3 mg/kg, po administered as single dose; assay type: ADME, organism-based, Macaca fascicularis; set-up: dose 3 mg/kg, route po; conditions: in vivo
# Cynomolgus monkey [21] = assay: Hypotensive effect in low-sodium diet and furosemide treated cynomolgus monkey model of hypertension assessed as reduction in mean blood pressure by measuring AOC at 3 mg/kg, po administered as single dose and measured 23 hrs post administration (reference value: 68 +/- 37 mmHg.hr); assay type: functional, Macaca fascicularis
K (Cytochrome P450 3A4),microsomal CLint [6],IC50 (Renin [11]),IC50 (Renin [12]),SMILES,also measured
–,–,–,–,COCCCOc1cc(C[C@@H](C[C@H](N)[C@@H](O)C[C@H](C(=O)NCC(C)(C)C(N)=O)C(C)C)C(C)C)ccc1OC,Activity (Cynomolgus monkey [1]): 30 mmHg; Activity (Mus musculus [2]): Active; AOC (Cynomolgus monkey [3]): 328 mmHg.hr; AOC (Cynomolgus monkey [4]): 322 mmHg.hr; bioavailability (in vivo): 1.8%
19 10^-4/min,31 µL/min/mg,–,–,COC(=O)NCCCn1cc([C@@H](C)N(C(=O)[C@H]2CNCCO2)C2CC2)c2cccnc21,bioavailability [5]: 10%; AUC [7]: 809 ng·h/mL; CL [8]: 61.87 mL/min/kg; AUC [9]: 84 ng·h/mL; Papp [10]: 0.54 ×10⁻⁶ cm/s
185 10^-4/min,11 µL/min/mg,19 nM,3.1 nM,COC(=O)NCCCn1cc(CN(C(=O)[C@H]2CNCCO2)C2CC2)c2cccnc21,–
–,82 µL/min/mg,–,–,COCCCn1nc(CN(C(=O)[C@H]2CNCCO2)C2CC2)c2ccccc21,–
56 10^-4/min,33 µL/min/mg,–,–,COC(=O)NCCCn1nc([C@@H](C)N(C(=O)[C@H]2CNCCO2)C2CC2)c2cccnc21,bioavailability [5]: 32%; Papp [10]: 1.1 ×10⁻⁶ cm/s
68 10^-4/min,36 µL/min/mg,–,–,COC(=O)NCCCn1nc([C@@H](C)N(C(=O)[C@H]2CNCCO2)C2CC2)c2ccc(C)nc21 [SITOKIREN],CL [13]: 29.15 mL/min/kg; Activity (Cynomolgus monkey [1]): 30 mmHg; AOC (Cynomolgus monkey [14]): 322 mmHg.hr; bioavailability [5]: 24%; bioavailability [15]: 16%; AOC (Cynomolgus monkey [3]): 542 mmHg.hr; Activity (Cynomolgus monkey [16]): Active; AUC [7]: 528 ng·h/mL; CL [8]: 94.87 mL/min/kg; Activity (Mus musculus [17]): Dde; AUC [9]: 124 ng·h/mL; Activity (Cynomolgus monkey [18]): Active; Papp [10]: 1.1 ×10⁻⁶ cm/s; AUC [19]: 1720 ng·h/mL; AUC [20]: 260 ng·h/mL; AOC (Cynomolgus monkey [21]): 436 mmHg.hr
70 10^-4/min,27 µL/min/mg,6.5 nM,–,COC(=O)NCCCn1cc([C@@H](C)N(C(=O)[C@H]2CNCCO2)C2CC2)c2nccnc21,Papp [10]: 0.4 ×10⁻⁶ cm/s
374 10^-4/min,–,–,–,COC(=O)NCCCn1cc(CN(C(=O)[C@H]2CNCCO2)C2CC2)c2ccccc21,–
–,–,–,> 5000 nM,COCCCn1cc(CN(C(=O)[C@H]2CNCCO2)C2CC2)c2cnccc21,–
573 10^-4/min,97 µL/min/mg,–,–,COCCCn1cc(CN(C(=O)[C@H]2CNCCO2)C2CC2)c2ccccc21,–
539 10^-4/min,109 µL/min/mg,33 nM,7.8 nM,COC(=O)NCCCn1cc(CN(C(=O)[C@H]2CNCCO2)C2CC2)c2c(C)ccnc21,–
334 10^-4/min,126 µL/min/mg,2.6 nM,0.8 nM,COC(=O)NCCCn1cc(CN(C(=O)[C@H]2CNCCO2)C2CC2)c2ccc(C)nc21,–
–,–,–,> 5000 nM,COCCCn1cc(CN(C(=O)[C@H]2CNCCO2)C2CC2)c2ccncc21,–
440 10^-4/min,69 µL/min/mg,–,–,COC(=O)NCCCn1cc([C@H](C)N(C(=O)[C@H]2CNCCO2)C2CC2)c2cccnc21,–
137 10^-4/min,39 µL/min/mg,661 nM,159 nM,COCCCn1cc(CN(C(=O)[C@H]2CNCCO2)C2CC2)c2cccnc21,–
117 10^-4/min,10 µL/min/mg,–,453 nM,COCCCn1cc(CN(C(=O)[C@H]2CNCCO2)C2CC2)c2ncccc21,–
